Where a chain is given by its changes, count along the chain named.

The target in test [1] is T1, human ALAS2 Cys-mut (C70A/C555A/C558A) (Homo sapiens, UniProt P22557, C555A/C558A/C70A).
T1 construct: Site-directed mutagenesis was performed on the mature ALAS2 (residues 54–587) construct to generate truncations and cysteine mutants; His6-SUMO (N, cleaved yes); made in house; host or cells: Escherichia coli BL21-Codon Plus (DE3)-RIL
T1 sequence (P22557 54-587 C70A/C555A/C558A): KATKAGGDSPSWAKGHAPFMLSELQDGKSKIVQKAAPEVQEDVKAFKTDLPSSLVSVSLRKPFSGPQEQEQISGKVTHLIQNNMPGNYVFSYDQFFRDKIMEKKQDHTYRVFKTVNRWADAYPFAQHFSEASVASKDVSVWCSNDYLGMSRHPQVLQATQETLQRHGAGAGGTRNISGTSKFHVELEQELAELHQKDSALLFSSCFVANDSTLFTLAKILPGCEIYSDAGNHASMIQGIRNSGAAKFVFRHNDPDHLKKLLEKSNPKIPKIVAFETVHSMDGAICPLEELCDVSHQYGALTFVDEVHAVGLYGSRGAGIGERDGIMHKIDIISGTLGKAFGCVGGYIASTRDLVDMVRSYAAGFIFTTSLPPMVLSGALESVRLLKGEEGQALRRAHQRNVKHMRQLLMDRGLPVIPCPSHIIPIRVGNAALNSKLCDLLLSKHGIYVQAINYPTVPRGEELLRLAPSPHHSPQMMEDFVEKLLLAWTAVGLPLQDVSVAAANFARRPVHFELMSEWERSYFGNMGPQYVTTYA
Put plainly: Isothermal titration calorimetry, hemin-protein interaction. In kind it is binding. To be noted: ITC, 25 °C. As for the experimental part:
Binding curves of the hemin-protein interaction were determined using Nano-ITC instrument (TA instruments) at 25 °C. Hemin was dissolved in 1 M NaOH and autoclaved to prepare a stock solution of 746 μM, ε385nm = 58,440 M^−1 cm^−1. The stock solution was diluted to 1.5 μM in titration buffer containing 25 mM Hepes, pH 7, 150 mM KCl, and 0.5 mM TCEP. Protein samples were dialyzed into the titration buffer and diluted to a final concentration of 40 μM. Fixed volumes of protein were injected at 200-s intervals into the cell containing hemin. An A + B hetero-association model was used to determine the thermodynamic parameters for each variant. Data were integrated and analyzed using NITPIC and SEDPHAT and visualized using GUSSI ([71], [72], [73]).
(In ITC the heat of successive injections is recorded.)

Test [2] addresses T2, WT holoALAS2 (residues 54–587) (Homo sapiens, UniProt P22557).
T2 construct: His6-SUMO (N, cleaved yes); made in house; host or cells: Escherichia coli BL21-Codon Plus (DE3)-RIL
T2 sequence (P22557 54-587): T1 sequence (P22557 54-587 C70A/C555A/C558A) with A17C, A502C, A505C
Put plainly: Succinyl-CoA:hemin competition analysis. In kind it is biochemical. To be noted: WT holoenzyme. How it is done: A discontinuous colorimetric activity assay adapted from Shoolingin-Jordan et al. and Bailey et al. was used to measure the enzyme activity ([48], [74]). The reaction was initiated by adding 100 nM purified enzyme to 50 mM potassium phosphate, pH 7.0, 10 mM MgCl2, 1 mM DTT, 100 mM glycine, and 300 μM succinyl-CoA (175 μl total). The reaction was incubated at 37 °C for 15 min and terminated with 100 μl of cold 10% trichloroacetic acid. The precipitated protein was removed by centrifugation for 5 min at 13,000g, and 240 μl of the supernatant was mixed with 240 μl of 1 M sodium acetate, pH 4.6. To derivatize ALA, 20 μl of acetylacetone was added to the mixture and boiled at 100 °C for 10 min. After the sample was cooled for 20 min, 100 μl aliquots were transferred into a clear 96-well plate in triplicate. An equal volume of Ehrlich’s reagent (p-Dimethylaminobenzaldehyde, DMAB) was added to each well, and the absorbance was monitored at 553 nm using a microplate reader (Thermo Fisher Scientific). The peak absorbance value was converted to molar ALA concentration using ε553 = 60,400 M^−1 cm^−1.
For inhibitor competition experiments, the apoenzymes were preincubated with hemin or PLP (0–100 μM) for 15 min at 25 °C in the dark before initiating the reaction. Next, either PLP or hemin (0–100 μM) was titrated into the reactions to measure enzyme activation after hemin inhibition or enzyme inhibition of the PLP-treated apoenzyme, respectively. For succinyl-CoA:hemin competition analyses, the WT holoenzyme was mixed with hemin (0, 25, 50, and 100 μM), followed by the addition of increasing succinyl-CoA concentrations (0, 25, 50, 100, 250, and 500 μM). All experiments were performed with a minimum of three biological replicates, each with three technical replicates. Data were fit using nonlinear regression to generate an agonist dose-response curve (EC50) or an inhibitor dose-response curve (IC50). Lineweaver-Burk analysis was performed using the resulting kinetic parameters (Vmax and KM) in GraphPad Prism 10.

The mark [3] stands for this setting: 95% confidence interval in brackets.

In test [1], ferric chloride heme [hemin] gave a ΔG of -8.48 kcal/mol and a ΔS of −1.18 kcal/mol K. Also, in test [1] (setting [3]), the Kd came out at 610 nM and the ΔH is −361 [−561, −280] kcal/mol. Further, the “fold lower Vmax” value in test [2] (heme versus no heme, varied succinyl-CoA) is on record as 8 fold. Also, in test [2] (varied succinyl-CoA and heme), the mode of inhibition result was “uncompetitively”.

For orientation: Kd means the equilibrium constant for the complex coming apart.

(Values after article PMC12856317, “A reversible feedback mechanism regulating mitochondrial heme synthesis” (The Journal of Biological Chemistry, 2025).)
